Data reported in patent US10590393B2, “Retinoic acid enhanced human stem cell derived blood brain barrier model” (Wisconsin Alumni Research Foundation, priority 2012, dated 2020).
Where two headings read alike, the source gives them in different places.

Assays:
iPSC-derived BMECs = experiment: Test of compounds for the ability to mimic the activity of RA (elevated TEER); assay type: cell-based, human; conditions: for induction of elevated TEER: ability to mimic the activity of RA
Excerpt: Further, Applicants tested a list of compounds for the ability to mimic the activity of RA.
A typical retinoic acid-enhanced blood brain barrier is created as described below and in the figures. Retinoic acid suitable for the present invention may be obtained from commercial sources such as Sigma-Aldrich. […] Both types of RA are suitable for the present invention.

[1] = system: hCMEC/D3 immortalized human BMEC line; conditions: cited from earlier work
in vitro = conditions: human, permeability
Protocol: (§1) To determine Pe values for radiolabeled compounds, each compound was diluted to 0.4 μCi in transport buffer (distilled water with 0.12 M NaCl, 25 mM NaHCO3, 3 mM KCl, 2 mM MgSO4, 2 mM CaCl2, 0.4 mM K2HPO4, 1 mM HEPES, and 0.1% bovine serum albumin [BSA; Sigma]). 200 μL aliquots were extracted from the basolateral chamber every 15 min and replaced by fresh transport buffer. […] [^3H]-vincristine was purchased from American Radiolabeled Chemicals (St. Louis, Mo., USA), while all other radiolabeled compounds were acquired from PerkinElmer (Waltham, Mass., USA). All compound incubations were conducted at 37° C. and carried out on a rotator. Triplicate filters were used for all permeability studies.

IMR90-4-derived BMECs = experiment: in vitro; conditions: for permeability: human, 1 h
Protocol: as §1

[2] = RA treatment and optimized neural cell co-culture

Molecule	induction of elevated TEER (iPSC-derived BMECs)	other results
O=C(O)CCc1cc(I)c(O)c(I)c1 [3,5-diiodo-4-hydroxyphenylpropionic acid]	not to induce elevated TEER	
N[C@@H](Cc1cc(I)c(Oc2ccc(O)cc2)c(I)c1)C(=O)O [3,5-diiodo-L-thyronine]	not to induce elevated TEER	
CCCCCC#CCC#CCC#CCC#CCCCC(=O)O [5,8,11,14-eicosatetraynoic acid]	not to induce elevated TEER	
O=Cc1c2[nH]c3ccccc3c2cc2[nH]c3ccccc3c12 [6-formylindolo[3,2-B]carbazole]	not to induce elevated TEER	
CC1=C(/C=C/C(C)=C\C=C\C(C)=C\C(=O)O)C(C)(C)CCC1 [9-cis RA]		enhancement by RA isoform (iPSC-derived BMECs; two isoforms of RA tested): producing the desired enhancement
C=C1CC[C@H](O)C/C1=C/C=C1\CCC[C@]2(C)[C@@H]([C@H](C)CCCC(C)(C)O)CC[C@@H]12 [25-hydroxyvitamin D3]	not to induce elevated TEER	
CC1(C)CC=C(c2ccccc2)c2cc(/C=C/c3ccc(C(=O)O)cc3)ccc21 [BMS 453]	not to induce elevated TEER	
CC1(C)C(=O)C(C)(C)c2cc(C(=O)Nc3ccc(C(=O)O)cc3)ccc21 [BMS 753]	induce elevated TEER	
Clc1ccc(-c2nc3sccn3c2/C=N/OCc2ccc(Cl)c(Cl)c2)cc1 [CITCO]	not to induce elevated TEER	
COc1cc2c(c(OC)c1OC)-c1ccc(OC)c(=O)cc1[C@@H](NC(C)=O)CC2 [Colchicine, colchicine]		permeability ([1]; hCMEC/D3, colchicine and vincristine estimated from graphical data): approximately 1.6×10^−3 cm/min; Papp A→B at 1 h (in vitro; RA-treated cells without co-culture): 0.383 ×10⁻⁶ cm/s; Papp A→B at 1 h (in vitro; optimized co-culture conditions (pericyte/hNPC), RA-treated): 0.25 ×10⁻⁶ cm/s; Average Pe (IMR90-4-derived BMECs; [2]): 0.015 ± 0.007 10^−3 cm/min; Average Pe (IMR90-4-derived BMECs; RA treatment only): 0.023 ± 0.0096 10^−3 cm/min
COc1cc2nc(N3CCN(C(=O)c4ccco4)CC3)nc(N)c2cc1OC [Prazosin, prazosin]		Papp A→B at 1 h (in vitro): 1.83 ×10⁻⁶ cm/s; Average Pe (IMR90-4-derived BMECs; [2]): 0.11 ± 0.006 10^−3 cm/min; Average Pe (IMR90-4-derived BMECs; RA treatment only): 0.2 ± 0.05 10^−3 cm/min; permeability (IMR90-4-derived BMECs): 2±0.5×10^−4 cm/min
CC[C@]1(O)C[C@H]2CN(CCc3c([nH]c4ccccc34)[C@@](C(=O)OC)(c3cc4c(cc3OC)N(C=O)[C@H]3[C@@](O)(C(=O)OC)[C@H](OC(C)=O)[C@]5(CC)C=CCN6CC[C@]43[C@@H]65)C2)C1 [Vincristine, vincristine]		permeability [1]: approximately 0.75×10^−3 cm/min; Papp A→B at 1 h (in vitro): 0.433 ×10⁻⁶ cm/s; permeability (IMR90-4-derived BMECs): 3.5±0.9×10^−5 cm/min
Cc1cccc(Nc2cc(Cl)nc(SCC(=O)O)n2)c1C [WY-14643]	not to induce elevated TEER	
CCCCC[C@H](O)/C=C/[C@@H]1[C@H]2C/C(=C/CCCC(=O)O)C[C@H]2C[C@H]1O [carbacyclin]	induce elevated TEER	
C[C@H](CCC(=O)O)[C@H]1CC[C@H]2[C@@H]3[C@H](O)C[C@@H]4C[C@H](O)CC[C@]4(C)[C@H]3C[C@H](O)[C@]12C [cholic acid]	not to induce elevated TEER	
CC/C=C\C/C=C\C/C=C\C/C=C\C/C=C\C/C=C\CCC(=O)O [docosa-4Z,7Z,10Z,13Z,16Z,19Z-hexaenoic acid]	not to induce elevated TEER	
CC(=O)[C@H]1[C@H](C#N)C[C@H]2[C@@H]3CC=C4C[C@@H](O)CC[C@]4(C)[C@H]3CC[C@@]21C [pregnenolone-16α-carbonitrile]	not to induce elevated TEER	
CD 3254	induce elevated TEER	
